≈ marks a conversion by molar mass, not a printed value. Like-named read-outs stand apart in the source and are kept apart here.
Key:
[1] = Spectrophotometric determination of dissociation constants (pKa); format: physicochemical; details: UV-vis at varying pH, 1:1 water:methanol buffers
Experimental: Dissociation constants (pKa) for select analogues were determined by implementing UV-vis spectroscopy at varying pH values. Buffers were prepared using potassium phosphate monobasic (KH2PO4) and sodium phosphate dibasic (Na2HPO4) in a 1:1 solution of water:methanol to achieve a pH range of 3.78 to 10.94. Compounds were added from 10 mM stock solutions in dimethyl sulfoxide (12.5 μL) to 987.5 μL of each buffer to yield a final compound concentration of 125 μM. Full spectral scans were performed for each evaluated analogue at pH 3.78 and pH 10.94 from 300 to 800 nm to determine λmax values for the protonated phenol (HA; e.g., HP 2 below) and the deprotonated phenolate species (A^−; e.g., conjugate base of HP 2 below). The change in absorption at each determined λmax in relation to pH was then monitored in each buffer and then plotted as absorbance versus pH for each species. The pKa was first estimated by determining the pH of the point of intersection of the two linear curves as shown. The visual estimation was confirmed by plotting pH versus log [A^−/HA]. The resulting plot yielded a linear regression line with a Y-intercept corresponding to a calculated pKa value.

E. faecium 700221 (VRE) = assay: MIC assay with Tiron or metal(II) cation co-treatment; format: cell-based, Enterococcus faecium; details: Enterococcus faecium, VRE
[2] = tested on: MRSE (S. epidermidis ATCC 35984) planktonic cells and biofilms; assay: Calgary Biofilm Device (CBD) assay, MBC/MBEC; format: cell-based, Staphylococcus epidermidis; details: for MBC: Staphylococcus epidermidis
[3] = tested on: Enterococcus faecium (ATCC 700221), VRE; assay: MIC assay (broth microdilution, CLSI); format: cell-based
[4] = tested on: MRSA BAA-44 planktonic cells and biofilms; assay: Calgary Biofilm Device (CBD) assay, MBC/MBEC; details: Staphylococcus aureus, read-out: MRSA BAA-44 MBC
P. aeruginosa (PAO1) = assay: MIC assay (broth microdilution, CLSI); format: cell-based; details: Pseudomonas aeruginosa, PAO1; read-out: PAO1 MIC
[5] = tested on: methicillin-resistant S. aureus (MRSA) strains; assay: MIC assay, values summarised over MRSA strains; format: cell-based, Staphylococcus aureus
in vitro = format: cell-based; details: human
HeLa cells = assay: in vitro; format: cell-based; details: human, 24 h
[6] = tested on: MRSA-2 planktonic cells and biofilms; assay: Calgary Biofilm Device (CBD) assay, MBC/MBEC; format: cell-based, Staphylococcus aureus; details: Staphylococcus aureus, MRSA
MRSA BAA-44 = assay: MIC assay (broth microdilution, CLSI); details: Staphylococcus aureus, read-out: MIC, MRSA BAA-44
E. coli UAEC-1 = assay: MIC assay (broth microdilution, CLSI); format: cell-based; details: Escherichia coli, UAEC1; read-out: E. coli UAEC-1 MIC
[7] = tested on: VRE (E. faecium ATCC 700221) planktonic cells and biofilms; assay: Calgary Biofilm Device (CBD) assay, MBC/MBEC; format: cell-based, Enterococcus faecium; details: c lowest concentration tested; for MBC: Enterococcus
[8] = tested on: MRSA BAA-1707 planktonic cells and biofilms; assay: Calgary Biofilm Device (CBD) assay, MBC/MBEC; details: Staphylococcus aureus, read-out: MRSA BAA-1707 MBC
A. baumannii 19606 = assay: MIC assay (broth microdilution, CLSI); format: cell-based, Acinetobacter baumannii; details: Acinetobacter baumannii, 19606; read-out: A. baumannii 19606 MIC
human red blood cells = assay: Hemolysis assay with red blood cells; details: human, 1 h, 200 μM, pH 7.2
Procedure, shortened: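 Washed human red blood cells exposed to compounds added from DMSO stocks, 1 h at 37° C.; supernatant OD read at 405 nm after centrifugation. % hemolysis calculated relative to DMSO (0%) and Triton X (100%) controls, from three independent experiments.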

K. pneumoniae 13883 = assay: MIC assay (broth microdilution, CLSI); format: cell-based, Klebsiella pneumoniae; details: Klebsiella pneumoniae, 13883; read-out: K. pneumoniae 13883 MIC
[9] = tested on: MRSA-1 (methicillin-resistant Staphylococcus aureus clinical isolate); assay: MIC assay (broth microdilution, CLSI); format: cell-based; details: read-out: MIC, MRSA-1
[10] = tested on: M. tuberculosis H37Ra (ATCC 25177); assay: Mycobacterium tuberculosis MIC assay; format: cell-based
Experimental: (§1) The culture was then diluted with fresh medium until an OD600 of 0.01 was reached. […] The final DMSO concentration was maintained at 0.5%. […] Three rows were reserved for each compound. […] OD600 absorbance was recorded using SPECTRAMAX M5 (Molecular Devices). Data obtained from three independent experiments were analyzed using Excel.
as §1, with “EXCEL.” for “Excel.”

MRSA BAA-1707 = assay: MIC assay (broth microdilution, CLSI); details: Staphylococcus aureus, read-out: MIC, MRSA BAA-1707
[11] = tested on: Staphylococcus epidermidis (ATCC 12228); assay: MIC assay (broth microdilution, CLSI); format: cell-based; details: Staphylococcus epidermidis, ATCC12228
[12] = tested on: MRSA-2 (methicillin-resistant Staphylococcus aureus clinical isolate); assay: MIC assay (broth microdilution, CLSI); format: cell-based; details: Staphylococcus aureus, MRSA
[13] = tested on: Staphylococcus epidermidis (ATCC 35984), MRSE; assay: MIC assay (broth microdilution, CLSI); format: cell-based; details: Staphylococcus epidermidis, Table 7; read-out: MIC, MRSE 35984
[14] = tested on: S. aureus clinical isolate SA 129; assay: MIC assay (broth microdilution, CLSI); details: Staphylococcus aureus, read-out: MIC, SA 129
[15] = tested on: S. aureus clinical isolate SA 138; assay: MIC assay (broth microdilution, CLSI); details: Staphylococcus aureus, read-out: MIC, SA 138
MRSA-2 = assay: MIC assay with Tiron or metal(II) cation co-treatment; format: cell-based, Staphylococcus aureus; details: Staphylococcus aureus; MRSA-2, 200 μM iron(II); read-out: MIC with Fe^2+
[16] = tested on: MRSA-2 persister cells (stationary cultures); details: 100 μM; for MRSA-2 stationary killing: reduction of viable cells over 24 h
[17] = Table 8, read-out: MRSE 35984 MBC
[18] = Enterococcus faecium, Table 2A, read-out: MIC, Enterococcus faecium (ATCC 700221)
[19] = Table 7, b lowest concentration tested, read-out: MIC, VRE 700221
[20] = Table 8, a/b 2-/4-fold range in independent experiments, read-out: MRSA-2 MBC
[21] = Table 8, read-out: VRE 700221 MBC
[22] = Enterococcus faecium, Table 2B, b lowest concentration tested, read-out: MIC, Enterococcus faecium (ATCC 700221)
[23] = Table 7, b lowest concentration tested, read-out: MIC, S. epidermidis 12228

SMILES	melting point	MBC [2, 17]	MIC [3, 18]	MIC [3, 19]	MBC [4]	growth inhibition activity against at least one MRSA strain [5]	IC50 at 24 h (in vitro)	IC50 (HeLa cells)	MBC [6, 20]	MIC (MRSA BAA-44)	MBC [7, 21]	MBC [8]	% Hemolysis (200 μM) (human red blood cells)	% Hemolysis at 200 μM (human red blood cells)	MIC [3, 22]	MIC (MRSA BAA-1707)	MIC [11, 23]	also measured
O=[N+]([O-])c1ccc(O)cc1 [4-nitrophenol, reference compound]																		pKa [1]: 7.62
Oc1c(Br)cc(I)c2nc3ccccc3nc12 [Compound 8, 2-Bromo-4-iodo-1-hydroxyphenazine]	186 to 188 °C	11.7 µM (≈ 4.69 µg/mL)	6.25 µM (≈ 2.51 µg/mL)	6.25 µM (≈ 2.51 µg/mL)	46.9 µM (≈ 18.8 µg/mL)	sub-micromolar	> 100 µM	> 100 µM	31.3 µM (≈ 12.6 µg/mL)	1.17 µM (≈ 0.469 µg/mL)	3 µM (≈ 1.2 µg/mL)	23.5 µM (≈ 9.42 µg/mL)	2.9%	2.9%				MIC (E. faecium 700221 (VRE); E. faecium 700221, 200 μM CuSO4, read-out: MIC with Cu^2+): 3.13 µM; MIC (E. faecium 700221 (VRE); E. faecium 700221, 1 mM Tiron, read-out: MIC with Tiron): 3.13 µM; MIC (E. faecium 700221 (VRE); E. faecium 700221, no additive, read-out: MIC): 3.13 µM; MIC (P. aeruginosa (PAO1)): > 100 µM; MBC ([6]; Table 4, read-out: MBC, MRSA-2): 31.3 µM (≈ 12.6 µg/mL); MIC (E. coli UAEC-1): > 100 µM; MIC (A. baumannii 19606): 50 µM (≈ 20.1 µg/mL); MIC (K. pneumoniae 13883): > 100 µM
Oc1c(Br)cc(Br)c2nc3cc(Br)c(Br)cc3nc12 [Compound 17, 2,4,7,8-tetrabromo-1-hydroxyphenazine]			0.39 µM (≈ 0.2 µg/mL)	0.39 µM (≈ 0.2 µg/mL)	50 µM (≈ 25.6 µg/mL)		> 100 µM	> 100 µM		25 µM (≈ 12.8 µg/mL)	0.39 µM (≈ 0.2 µg/mL)	6.25 µM (≈ 3.2 µg/mL)	≤1%		0.39 µM (≈ 0.2 µg/mL)	12.5 µM (≈ 6.4 µg/mL)	0.08 µM (≈ 0.0409 µg/mL)	MBC ([2]; read-out: MBC, Staphylococcus epidermidis (ATCC 35984)): 1.56 µM (≈ 0.798 µg/mL); MBC ([2]; read-out: MRSE 35984 MBC): 1.56 µM (≈ 0.798 µg/mL); MBC ([2]; read-out: MRSE MBC): 1.56 µM (≈ 0.798 µg/mL); MBEC, Staphylococcus epidermidis (ATCC 35984) ([2]; Table 4): 6.25 µM; MRSE MBEC ([2]; Table 5): 6.25 µM; MIC ([9]; Staphylococcus aureus, MRSA): 12.5 µM (≈ 6.4 µg/mL); MIC ([9]; Table 2B, b lowest concentration tested): 12.5 µM (≈ 6.4 µg/mL); MIC ([10]; Mycobacterium tuberculosis, 168 h, M. tuberculosis H37Ra, 7 days, read-out: Mtb MIC): > 50 µM; MIC ([10]; Mycobacterium tuberculosis, Table 7, read-out: MIC, M. tuberculosis H37Ra): > 50 µM; MIC ([10]; Table 7, read-out: MIC, M. tuberculosis H37Ra): >50 µM; MBC ([7]; Table 5, read-out: VRE MBC): 0.39 µM (≈ 0.2 µg/mL); VRE MBEC ([7]; Table 5): 0.39/0.39 μM; MIC ([11]; Table 2A, read-out: MIC, Staphylococcus epidermidis (ATCC 12228)): 0.05 to 0.1 µM (≈ 0.0256 to 0.0512 µg/mL); MIC ([12]; read-out: MIC, MRSA-2): 6.25 µM (≈ 3.2 µg/mL); MIC ([12]; read-out: MIC, MRSA-2, Table 2B, a midpoint of 2-fold range, * partial growth inhibition at highest concentration): 6.25 µM (≈ 3.2 µg/mL); MIC ([12]; read-out: MIC, MRSA-2, Table 7, a midpoint of 2-fold range, b lowest concentration tested): 6.25 µM (≈ 3.2 µg/mL)
Oc1c(Br)cc(Br)c2nc3ccc(Br)cc3nc12 [Compound 18, 2,4,8-Tribromo-1-hydroxyphenazine]	239 to 241 °C					sub-micromolar			50 µM (≈ 21.6 µg/mL)			12.5 µM (≈ 5.41 µg/mL)		2.1%		0.2 µM (≈ 0.0866 µg/mL)	3.13 µM (≈ 1.35 µg/mL)	MIC [13]: 3.13 µM (≈ 1.35 µg/mL); MIC ([5]; Staphylococcus aureus, MRSA, range over the MRSA strains/isolates tested, read-out: MIC against MRSA strains): 0.15 to 0.78 µM (≈ 0.0649 to 0.338 µg/mL)
CCCCc1cc(Br)c(O)c2nc3ccccc3nc12 [Compound 22, 2-Bromo-4-butyl-1-hydroxyphenazine]	135 to 137 °C	11.7 µM (≈ 3.88 µg/mL)		0.78 µM (≈ 0.258 µg/mL)					46.9 µM (≈ 15.5 µg/mL)		2 µM (≈ 0.662 µg/mL)	46.9 µM (≈ 15.5 µg/mL)						MIC [14]: 1.17 µM (≈ 0.388 µg/mL); MIC [15]: 3.13 µM (≈ 1.04 µg/mL)
CC(=O)NC[C@H]1CN(c2ccc(N3CCOCC3)c(F)c2)C(=O)O1 [Linezolid, linezolid, reference compound]				3.13 µM (≈ 1.06 µg/mL)							469 µM (≈ 158 µg/mL)	31.3 µM (≈ 10.6 µg/mL)	≤1%		3.13 µM (≈ 1.06 µg/mL)			MIC (MRSA-2): 6.25 µM; log reduction of MRSA-2 persisters after 3 hours ([16]; 3 hours): 2 log; MRSA-2 stationary killing [16]: ~1 log; MRSA-2 stationary killing ([16]; listed as linezolid): 1 log; MIC ([12]; Table 7, a midpoint of 2-fold range, b lowest concentration tested, read-out: MIC, MRSA-2): 3.13 µM (≈ 1.06 µg/mL)
